From publication PMC4749519, “Isoprenylated Flavonoids with PTP1B Inhibition from Macaranga denticulata” (Natural Products and Bioprospecting, 2016)

Biological target: T1, protein tyrosine phosphatase 1B (PTP1B) (Homo sapiens, UniProt P18031)
T1 sequence (P18031 1-435): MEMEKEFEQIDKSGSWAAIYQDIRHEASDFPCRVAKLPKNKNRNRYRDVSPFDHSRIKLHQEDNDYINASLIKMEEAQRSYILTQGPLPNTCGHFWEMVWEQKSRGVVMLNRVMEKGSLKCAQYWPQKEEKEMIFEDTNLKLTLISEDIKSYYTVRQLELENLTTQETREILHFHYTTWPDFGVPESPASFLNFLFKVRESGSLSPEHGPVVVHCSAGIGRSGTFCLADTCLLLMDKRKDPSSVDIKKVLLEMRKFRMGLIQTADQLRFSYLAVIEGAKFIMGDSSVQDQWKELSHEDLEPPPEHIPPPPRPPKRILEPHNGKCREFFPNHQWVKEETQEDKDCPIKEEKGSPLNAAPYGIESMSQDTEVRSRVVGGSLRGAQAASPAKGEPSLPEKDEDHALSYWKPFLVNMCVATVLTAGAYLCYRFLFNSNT
Assay: Assay of PTP1B activity (in vitro enzyme inhibition)
Type: biochemical
Details: in vitro PTP1B enzymatic activity; oleanolic acid as positive control; read-out: IC50 ± SD, inhibitory activity against PTP1B
Description: The bioassay procedure was the same as that reported previously. The result of PTP1B inhibition was expressed as IC50, which was calculated with Prism 4 software (Graphpad, San Diego, CA).

| Structure (SMILES) | IC50 [µM] |
| --- | --- |
| COc1ccc(/C=C/C(=O)c2c(O)c(C)c(O)c3c2OC(C)(C)C=C3)cc1 [Compound 4, (2E)-1-(5,7-dihydroxy-2,2,6-trimethyl-2H-benzopyran-8-yl)-3-(4-methoxyphenyl)-2-propen-1-one] | 48.8 ± 5.5 |
| CC(C)=CCC/C(C)=C/Cc1c(O)cc2c(c1O)C(=O)C[C@@H](c1ccc(O)cc1)O2 [Compound 9, bonannione A] | 14 ± 1.2 |
| CC1(C)C=Cc2c(O)cc(O)c(C(=O)/C=C/c3ccccc3)c2O1 [Compound 5, (2E)-1-(5,7-dihydroxy-2,2-dimethyl-2H-benzopyran-8-yl)-3-phenyl-2-propen-1-one] | 19.3 ± 1.4 |

Now from value to molecule:

| IC50 [µM] | Structure (SMILES) |
| --- | --- |
| 15.2 ± 2.8 | CC(C)=CCC/C(C)=C/Cc1c(O)cc2c(c1O)C(=O)[C@H](O)[C@@H](c1ccc(O)cc1)O2 [Compound 8, bonanniol A] |
| 20.7 ± 5.3 | CC1(C)C=Cc2c(O)c(C(=O)/C=C/c3ccc(O)cc3)c3c(c2O1)C=CC(C)(C)O3 [Compound 6, laxichalcone] |
| 22.7 ± 4.6 | CC(C)=CCC/C(C)=C/Cc1c(O)cc2oc(-c3ccc(O)cc3)c(O)c(=O)c2c1O [Compound 7, macarangin] |
